Source: US20060019966A1, “Method for treating nervous system disorders and conditions” (Wyeth, priority 2004, published 2006)
pEC50: −log10 of the molar value.

Columns and labels:
hNET = biological target: T1, hNET (Homo sapiens, UniProt P23975); assay: Norepinephrine (NE) uptake assay, hNET function uptake; format: cell-based; conditions: MDCK-Net6 cells, [3H]NE uptake
T1 construct: expressed in transfected cells; host or cells: MDCK-Net6 (MDCK cells stably transfected with hNET)
Description: (§1) The JAR cell line (human placental choriocarcinoma) may be purchased from ATCC (Cat. No. HTB-144). […] For all assays, cells may be plated in Wallac 96-well sterile plates (PerkinElmer, Cat. No. 3983498).
Test compounds are prepared in DMSO (10 mM) and diluted in assay buffer according to test range (1 to 10,000 nM). Twenty-five microliters of assay buffer (maximum NE uptake) or test compound are added directly to triplicate wells containing cells in 200 μl of assay buffer. […] To initiate the NE uptake, [^3H]NE diluted in assay buffer (120 nM final assay concentration) is delivered in 25 μl aliquots to each well and the plates is incubated for 5 minutes (37° C.).

hSERT = biological target: T2, hSERT (Homo sapiens, UniProt P31645); assay: Serotonin (5-HT) uptake assay, hSERT function uptake; format: cell-based; conditions: JAR cells, [3H]5-HT uptake
T2 construct: The methods for 5-HT functional reuptake using the JAR cell line; host or cells: JAR (human placental choriocarcinoma), staurosporine-stimulated
T2 sequence (P31645 whole entry): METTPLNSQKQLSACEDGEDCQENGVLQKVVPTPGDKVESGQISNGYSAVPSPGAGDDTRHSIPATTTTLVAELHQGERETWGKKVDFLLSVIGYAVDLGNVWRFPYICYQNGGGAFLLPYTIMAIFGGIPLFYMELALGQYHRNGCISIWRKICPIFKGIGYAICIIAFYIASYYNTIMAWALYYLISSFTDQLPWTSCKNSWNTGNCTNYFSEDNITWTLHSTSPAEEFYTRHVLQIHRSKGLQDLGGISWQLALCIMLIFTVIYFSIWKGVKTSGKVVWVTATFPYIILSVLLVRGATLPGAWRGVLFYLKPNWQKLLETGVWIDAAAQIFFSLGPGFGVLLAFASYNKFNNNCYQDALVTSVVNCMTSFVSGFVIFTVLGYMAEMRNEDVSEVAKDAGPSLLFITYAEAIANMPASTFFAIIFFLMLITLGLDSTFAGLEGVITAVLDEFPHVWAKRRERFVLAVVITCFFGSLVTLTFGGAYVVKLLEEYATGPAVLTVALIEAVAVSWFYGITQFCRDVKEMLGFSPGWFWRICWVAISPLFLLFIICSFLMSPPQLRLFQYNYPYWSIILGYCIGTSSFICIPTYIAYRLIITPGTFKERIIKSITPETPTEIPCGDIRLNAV
Description: as §1
The methods for 5-HT functional reuptake using the JAR cell line is modified using a previous literature report (Prasad, et al., Placenta, 1996. 17(4): 201-7). […] On day 2, cells are stimulated with staurosporine (40 nM) to increase the expression of the 5-HT transporter. On day 3, cells are removed from the cell incubator two hours prior to assay and maintained at room temperature to equilibrate the growth medium to ambient oxygen concentration. […] Data from these wells are used to define non-specific 5-HT uptake (minimum 5-HT uptake). Test compounds are prepared in DMSO (10 mM) and diluted in assay buffer according to test range (1 to 1,000 nM). Twenty-five microliters of assay buffer (maximum 5-HT uptake) or test compound are added directly to triplicate wells containing cells in 200 μl of assay buffer. The cells are incubated with the compound for 10 minutes (37° C.). To initiate the reaction, [^3H]hydroxytryptamine creatinine sulfate diluted in assay buffer is delivered in 25 μl aliquots to each well for a final test concentration of 15 nM. The cells are incubated with the reaction mixture for 5 minutes at 37° C. The 5-HT uptake reaction is terminated by decanting the assay buffer.

[1] = biological target: T3, recombinant human dopamine transporter (hDAT) (Homo sapiens, UniProt Q01959); assay: Dopamine uptake transporter binding assay (3H-WIN 35,428); conditions: inhibition of 3H-WIN 35,428 binding to hDAT membranes
T3 construct: purchased PerkinElmer RBHDATM
T3 sequence (Q01959 whole entry): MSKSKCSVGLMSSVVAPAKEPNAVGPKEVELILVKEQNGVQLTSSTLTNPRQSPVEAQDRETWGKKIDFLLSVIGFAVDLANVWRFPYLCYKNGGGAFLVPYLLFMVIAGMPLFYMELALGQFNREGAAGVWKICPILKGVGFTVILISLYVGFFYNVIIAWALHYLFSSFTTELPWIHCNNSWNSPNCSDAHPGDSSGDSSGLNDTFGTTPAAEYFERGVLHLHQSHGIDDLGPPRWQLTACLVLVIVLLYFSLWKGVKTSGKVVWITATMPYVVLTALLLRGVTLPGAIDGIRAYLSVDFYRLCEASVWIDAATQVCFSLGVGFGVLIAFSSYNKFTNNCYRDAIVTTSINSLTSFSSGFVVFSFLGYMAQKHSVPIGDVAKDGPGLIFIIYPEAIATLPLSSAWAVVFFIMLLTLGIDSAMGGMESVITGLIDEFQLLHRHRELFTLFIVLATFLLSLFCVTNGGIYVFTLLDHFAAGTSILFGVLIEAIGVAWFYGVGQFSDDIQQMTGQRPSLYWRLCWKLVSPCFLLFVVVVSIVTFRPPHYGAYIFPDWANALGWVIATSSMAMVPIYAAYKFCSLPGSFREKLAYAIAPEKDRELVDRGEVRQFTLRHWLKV

[2] = system: tail skin temperature (TST) in ovariectomized (OVX) rats; assay: Telemetry rat model of ovariectomy-induced thermoregulatory dysfunction; format: in vivo; conditions: 30 mg/kg, sc, single dose
Text: Telemetry model: This model has been modified from a previously reported protocol describing estrogen regulation of diurnal tail skin temperature (TST) patterns (Berendsen, et al., European Journal of Pharmacology, 2001, 419(1): 47-54). […] In ovariectomized (OVX) rats, TST is elevated over the entire 24-hour period, thus the usual decrease in TST during the active (dark) phase is lost, thus, a compound's ability to restore this lowering of TST during the active phase was examined. […] After a 7-day recovery period, TST readings were continuously recorded for the remainder of the study. Tail skin temperature readings were collected from each animal every 5 minutes with values obtained over a 10 second sampling period. The day before test day, an average baseline TST value was calculated for each animal by averaging temperature readings recorded during the 12 hour active (dark) phase. […]
Statistical analysis: Evaluation of a compound's ability to restore normal lowering of TST in the telemetry model was analyzed using hourly TST values calculated for each animal by averaging the 12 temperature readings obtained every 5 minutes over that recording time. […]

T1 sequence (P23975 whole entry): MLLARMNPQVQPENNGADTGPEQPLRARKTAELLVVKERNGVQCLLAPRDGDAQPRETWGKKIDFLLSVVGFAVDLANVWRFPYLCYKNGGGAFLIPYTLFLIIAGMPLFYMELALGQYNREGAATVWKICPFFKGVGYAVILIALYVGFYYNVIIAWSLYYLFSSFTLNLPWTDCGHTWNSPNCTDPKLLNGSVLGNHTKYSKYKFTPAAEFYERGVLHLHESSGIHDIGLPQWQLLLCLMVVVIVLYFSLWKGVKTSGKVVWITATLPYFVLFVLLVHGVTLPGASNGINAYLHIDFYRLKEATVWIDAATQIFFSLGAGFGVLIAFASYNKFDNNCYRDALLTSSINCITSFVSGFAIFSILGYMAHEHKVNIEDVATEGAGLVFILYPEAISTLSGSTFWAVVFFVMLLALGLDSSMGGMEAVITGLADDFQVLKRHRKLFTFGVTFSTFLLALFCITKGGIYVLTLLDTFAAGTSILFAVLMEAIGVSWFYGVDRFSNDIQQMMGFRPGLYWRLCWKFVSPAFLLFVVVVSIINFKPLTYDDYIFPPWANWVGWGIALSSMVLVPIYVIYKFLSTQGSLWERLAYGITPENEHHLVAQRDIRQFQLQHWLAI

SMILES	pEC50 (hNET)	pEC50 (hSERT)	hDAT binding (% I at 10 μM) [1] [%]	effect on tail skin temperature (TST) [2]
Cc1ccc(C23CNCC2C3)cc1 (single isomer, unassigned; (-)) [(−)-1-(4-methylphenyl)-3-azabicyclo[3.1.0]hexane]	5.93	6.01	55	restored normal TST
Fc1ccc(C(OCCN2CCN(CCCc3ccccc3)CC2)c2ccc(F)cc2)cc1 [1-[2-[bis(4-fluorophenyl)methoxy]ethyl]-4-(3-phenylpropyl)piperazine, reference compound]				restored normal TST
